Experiments:
Adenosylhomocysteinase [1] = target: Adenosylhomocysteinase (Homo sapiens, UniProt P23526); experiment: Inhibitory activity against human S-adenosyl-L-homocysteine hydrolase
FM3A = experiment: Inhibitory activity against mammalian FM3A cell; format: functional, cell-based; details: Mus musculus
Adenosylhomocysteinase [2] = target: Adenosylhomocysteinase (Plasmodium falciparum 3D7, UniProt P50250); experiment: Inhibitory activity against Plasmodium falciparum S-adenosyl-L-homocysteine hydrolase
Plasmodium falciparum = experiment: Inhibitory activity against Plasmodium falciparum; format: functional, organism-based

Adenosylhomocysteinase (Plasmodium falciparum 3D7, UniProt P50250), sequence (P50250 whole entry): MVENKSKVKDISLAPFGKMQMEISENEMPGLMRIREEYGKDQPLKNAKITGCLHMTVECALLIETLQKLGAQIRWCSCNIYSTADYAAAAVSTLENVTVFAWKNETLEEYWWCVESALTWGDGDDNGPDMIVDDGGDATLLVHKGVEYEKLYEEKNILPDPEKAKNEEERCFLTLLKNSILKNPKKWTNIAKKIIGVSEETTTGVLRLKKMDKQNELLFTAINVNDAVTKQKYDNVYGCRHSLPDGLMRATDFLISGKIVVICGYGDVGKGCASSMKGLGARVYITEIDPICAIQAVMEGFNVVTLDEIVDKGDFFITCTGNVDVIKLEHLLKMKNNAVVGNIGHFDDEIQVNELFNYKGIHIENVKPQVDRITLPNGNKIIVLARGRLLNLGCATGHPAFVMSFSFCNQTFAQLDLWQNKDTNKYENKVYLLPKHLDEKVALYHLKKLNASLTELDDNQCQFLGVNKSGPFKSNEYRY
Adenosylhomocysteinase (Homo sapiens, UniProt P23526), sequence (P23526 whole entry): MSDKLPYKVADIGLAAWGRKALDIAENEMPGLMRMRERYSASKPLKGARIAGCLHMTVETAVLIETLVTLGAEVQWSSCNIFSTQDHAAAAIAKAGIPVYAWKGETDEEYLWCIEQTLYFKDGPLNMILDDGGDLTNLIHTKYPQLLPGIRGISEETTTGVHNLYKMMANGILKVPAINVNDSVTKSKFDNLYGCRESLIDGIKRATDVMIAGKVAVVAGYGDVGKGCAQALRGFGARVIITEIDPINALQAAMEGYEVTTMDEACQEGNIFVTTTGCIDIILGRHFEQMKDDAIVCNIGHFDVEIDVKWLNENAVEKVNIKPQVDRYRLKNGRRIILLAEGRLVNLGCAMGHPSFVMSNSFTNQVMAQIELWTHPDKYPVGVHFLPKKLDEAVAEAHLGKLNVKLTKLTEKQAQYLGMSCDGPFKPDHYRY

Row | SMILES | IC50 (Adenosylhomocysteinase [1]) | Ki (Adenosylhomocysteinase [1]) | EC50 (FM3A) | IC50 (Adenosylhomocysteinase [2]) | Ki (Adenosylhomocysteinase [2]) | EC50 (Plasmodium falciparum)
1 | Nc1ncnc2c1ncn2[C@@H]1C[C@H](O)[C@@H](O)[C@H]1O [NORARISTEROMYCIN] | 1.1 µM | 0.16 µM | 0.072 µM | 3.1 µM | 0.18 µM | 7.4 µM
2 | Nc1nc(F)nc2c1ncn2[C@@H]1C[C@H](O)[C@@H](O)[C@H]1O | 63 µM | 7.9 µM | 7.2 µM | 13 µM | 0.48 µM | 7.4 µM

Reference: ChEMBL document CHEMBL1136352, “Synthesis of 2-fluoronoraristeromycin and its inhibitory activity against Plasmodium falciparum S-adenosyl-L-homocysteine hydrolase” (Bioorg Med Chem Lett, 2003)
